Test results from patent publication US12660840B2, “Composition containing polyphenol” (CJ CHEILJEDANG CORPORATION, priority 2019, dated 2026).
Marks after values point to notes of the source that are not given here.

Assays:
[1] = DPPH radical scavenging activity; details: 10 minutes reaction, absorbance 517 nm; Table 7
Description: 4 mM of DPPH solution in ethanol was prepared and used after the absorbance was adjusted to 1.000±0.1. 0.2 mL of each sample was added to a test tube, 2.8 mL of DPPH solution was mixed and allowed to react for 10 minutes, and the absorbance was measured at 517 nm by using a microplate reader (M2, Molecular Device, Canada). L-ascorbic acid was used as a positive control. The DPPH radical scavenging activity was calculated from the following formula: DPPH radical scavenging activity (%)=[1−(A/B)]×100 • (A: absorbance of a group with addition of sample, B: absorbance of a group without addition of sample)

[2] = tested on: polyphenol oxidase (PPO); assay: Polyphenol oxidase (PPO) inhibitory activity; type: biochemical; details: pH 6.5, 25° C., catechin substrate, absorbance 420 nm; Table 11
Description: 1.7 mL of 50 mM phosphate buffer (pH 6.5) and 0.2 mL of PPO (4,276 units/mg) were mixed, and 0.1 mL of each polyphenol composition was added, and the mixture was left in a constant temperature water bath controlled at 25° C. for 15 minutes, and 1 mL of 4 mM catechin solution was added thereto as a substrate, respectively. Then, a change in absorbance for 5 minutes at 420 nm was measured by using a microplate reader (M2, Molecular Device, Canada). The enzyme inhibitory activity was expressed as absorbance reduction (%) represented by the following formula: Inhibition of PPO activity (%)=[1−(A/B)]×100 • [A: absorbance of sample, B: absorbance of blank solution]

[3] = Oxidation stability of lipid by Rancimat method; details: fish oil containing 2% of the polyphenol composition, 100° C., Table 9; for IP (min) induction period: air 20 L/hr; for AI Antioxidative Index: relative to lipid without composition
Description: Oxidation stability of lipid was analyzed by using the Rancimat (743 Metrohm Co., Herisau, Switzerland) method. 2.5 g of fish oil [Sigma-Aldrich Co. (St. Louis. MO, USA)] containing 2% of the polyphenol composition was put into a reaction vessel, and air was put at 20 L/hr into lipid on an aluminum heating block controlled at 100° C. to oxidize lipid. The volatile oxidation products generated during this time were transferred to an absorption vessel containing 60 mL of distilled water, and the degree of anti-oxidation was determined through the induction period automatically calculated in accordance with the change of electrical conductivity. For comparison of antioxidative activity, the Antioxidative Index (AI) was calculated by using a lipid sample with no addition of the polyphenol composition as a control group from the following formula: Further, L-ascorbic acid was used as a positive control. Antioxidative Index (AI)=IG/IC (IG: […])

[4] = Trimethylamine (TMA) reducing effect, SPME-GC/MS; details: TMA 100 ppm standard aqueous solution; compositions T1-T6, 50 ppm of each polyphenol
Description: 30% concentration product of trimethylamine was purchased from Duksan Chemistry (Ansan, Republic of Korea) and used in the experiment. To determine the TMA-reducing effect, the standard reagent of 30% trimethylamine was diluted with distilled water to 100 ppm to prepare a standard aqueous solution. The prepared standard aqueous solution was used as a solvent to prepare a test polyphenol composition, and a trimethylamine-containing polyphenol composition sample was prepared and used for GC/MS analysis. The trimethylamine (TMA) component was determined from the polyphenol composition through the following method. […] The amount of TMA in the composition was calculated by comparing the peak area of 1.0 g of the sample and 1 g of 100 mg/L of TMA relative to each other and performing the comparative relative quantification of the contents of volatile aroma components in the sample. To determine the superiority of the combination of chlorogenic acid, caffeic acid, and quinic acid, the TMA reducing effect, which is known to be an effect of polyphenols, was evaluated. Specifically, the trimethylamine (TMA)-reducing effect was evaluated through the method of Experimental example 2 for each polyphenol composition prepared in Experimental example 1-2. […]

Row | SMILES | DPPH (%) radical scavenging activity [1] | PPO (%) inhibition of PPO activity [2] | IP (min) induction period [3] | AI Antioxidative Index [3] | Reduction (%) of trimethylamine (TMA) [4]
1 | O=C1O[C@H]([C@@H](O)CO)C(O)=C1O [(+) control, L-ascorbic acid, reference compound] | 81.07 ± 0.59^a % | 22.86 ± 0.70^a % | 90.53 ± 1.37^c min | 1.22 ± 0.03^c | –
2 | O=C(O)[C@]1(O)C[C@@H](O)[C@@H](O)[C@H](O)C1 [Composition T3, Quinic acid] | 0.60 ± 1.04^e % | 19.47 ± 0.75^c % | 77.23 ± 1.05^e min | 1.04 ± 0.01^e | 57.66%
